Reference: a melting point compilation (Tetko et al.; mined from patent text by program, amines drawn as free bases though some values may be those of a salt)

SMILES	melting point
COc1cc(C(=O)NS(=O)(=O)c2ccccc2C)ccc1Cc1cn(C)c2ccc(CC3CCN(C)C3=O)cc12 (configuration not stated)	115 to 135 °C
Cc1cc(F)cc(-c2ccc3c(c2)C2(C=N3)CCCCC2)c1	180 to 182 °C
CCCCCc1cc2c(nc(O)n2Cc2cccnc2)c(N)n1	243 to 245 °C
COc1cc([N+](=O)[O-])c(N)cc1C(=O)Oc1ccccc1	130 to 132 °C
COC(=O)C1=C(C)NC(C)=C(C(=O)OCCN(C)C)C1c1cccc2nonc12 (configuration not stated)	99 °C
COc1cc(-c2ccc(C=O)o2)ccc1Br	127 to 128 °C
O=S1(=O)NC=Nc2c(Br)cc(Br)cc21	289 to 292 °C
Cc1oc(=O)oc1CSc1ccc(Cl)cc1	54 to 57 °C
O=C(O)CCC(O)c1ccc(-c2ccccc2Cl)cc1 (configuration not stated)	90 to 95 °C
C/C(=C\Cn1oc(=O)[nH]c1=O)c1cccc(OCc2nc(-c3ccccc3)oc2C)c1	118 to 119 °C
CCCOCCOc1ccc(-c2ccc3c(c2)C=C(C(=O)O)CCS3(=O)=O)cc1	176 to 179 °C
COc1ccc(-c2cc3cc(F)c(F)cc3[nH]2)cc1NCc1ccc(O)c([N+](=O)[O-])c1	195 to 196 °C
OC1CSC(Oc2cccnc2-c2cccs2)C(O)C1O (configuration not stated)	130 °C
OC(=S)c1ccc2cccnc2c1O	174 to 175 °C
CCOC(Cc1ccc(OCCN(C)c2nc3ccccc3o2)cc1)C(=O)O (configuration not stated)	109 to 110 °C
Cc1ccc(-c2nc3cc(N=C=S)ccc3o2)o1	110 to 121 °C
CC(C)(C)NC(=O)c1nn(-c2ccc(Cl)cc2F)c2c1C1CCC2C1 (configuration not stated)	148 to 152 °C
CC#CC1(C)OC(=O)Nc2ccc(-c3cccc(Cl)c3)cc21 (configuration not stated)	184 to 185 °C
CSc1cc2nc[nH]c(=O)c2s1	216 to 218 °C
CCc1c(C)c2ccc(O)cc2oc1=O	201 to 203 °C
CSc1ccc(C(N)=S)cc1	176 to 178 °C
O=Cc1cccc2ncc(C3CCCCC3)cc12	94 to 95 °C
c1ccc(OCCNc2nc(Nc3cc(C4CC4)n[nH]3)c3ccccc3n2)cc1	203 °C
CCCCC1CCc2c(OCc3ccc4ccccc4n3)cccc2C1=O (configuration not stated)	97 to 98 °C
COC(=O)CN1CCN(C(=O)OC(C)(C)C)C(Cc2ccc(OCc3ccccc3)cc2)C1=O (configuration not stated)	84 to 87 °C
Cc1cc(O)ccc1Oc1ccccc1	96 to 99 °C

SMILES	melting point
CCc1nnc2n1-c1ccc(Cl)cc1C(c1ccccc1)=NC2	229 to 230 °C
CC(C)(C)OCCCC1(O)c2ccccc2COc2ccccc21 (configuration not stated)	113 to 115 °C
CC(C)c1cc(C(=O)Nc2ccc(C(=O)O)nc2)sc1C(C)C	216 to 217 °C
CCOC(=O)N1CCN(C2=Nc3ccccc3Oc3ccc(Cl)cc32)CC1	122 °C
COc1cc2[nH]c(C)c(C(=O)C(=O)N3CCC(C(=O)c4ccccc4)CC3)c2cc1OC	188 to 190 °C
Cc1cn(C2CCCCC2)c(=O)nc1N	205 to 207 °C
O=C1OC(=O)c2c1ccc1ncccc21	247 to 250 °C
CCc1nc2ccc(OC(F)(F)F)cc2[nH]1	135 to 137 °C
CC(C)c1ccc(N(Cc2ccc(Cl)cc2)C(=O)C2CCCc3ccccc32)cc1 (configuration not stated)	122 to 123 °C
CC(C)(C)c1ccc(C=NOCCOc2ccc(C(=O)O)c(O)c2)cc1	161 to 163 °C
CCOC(=O)c1c(CCl)nc2cc(OC)c(OC)cc2c1-c1ccc(F)cc1	147 to 148 °C
C#Cc1ccc2ccc(C#C)cc2c1	124 to 126 °C
COC(=O)c1scc(Cl)c1NC(C)=O	142 to 147 °C
CCC(=O)c1cc(C(=O)O)c(=O)[nH]c1CC	180 to 182 °C
OCCNc1c(Br)cnc2cc(C(F)(F)F)ccc12	140 to 141 °C
CC=C1CCC2C3CCC4CC(O)C(OCC)CC4(C)C3C(N(C)C)CC12C (configuration not stated)	63 to 78 °C
Cc1cc(C#N)sc1-c1ccc2c(c1)C(C)(C)OC(C(F)(F)F)N2 (configuration not stated)	97 to 98 °C
CCOc1ccc(-c2nc(CCC(=O)c3nccs3)cs2)cc1OCC	93.1 to 94.4 °C
CC(=O)ON(C)C(=O)C(C)Nc1c([N+](=O)[O-])cc(C)cc1[N+](=O)[O-] (configuration not stated)	137 to 138 °C
CC(C)(COC(=O)c1cc(Cl)c(O)c(Cl)c1)Cc1ccc(CC(C)(C)COC(=O)c2cc(Cl)c(O)c(Cl)c2)cc1	203 to 204 °C
CCc1cc2cc(CC(=O)O)c(Cl)c(Cl)c2s1	179 to 181 °C
CN=C1SCC(O)(C(c2ccccc2)c2ccccc2)N1C (configuration not stated)	133 to 136 °C
CC(C)N1C(=O)NC(NC2CC2)NC1=O	237 to 239 °C
Cn1cc(C2=CCN(CCCN3c4cccc5cccc(c45)S3(=O)=O)CC2)c2ccccc21	161 °C
N#Cc1ccccc1OCC1CN=C(N)O1 (configuration not stated)	146 °C
CCc1cccc(CC(=O)O)c1OCCCc1cn(-c2ccc(Cl)cn2)nc1C(C)C	142 to 143 °C

SMILES	melting point
Cc1nc(-n2ccc(OCc3ccc(C(F)(F)F)o3)cc2=O)sc1C(=O)O	261 to 263 °C
C=CCOc1ccc(Cl)c2oc(Cc3ccc(OC)cc3)c(C)c12	90 to 93 °C
CN(C)c1ccc(C(=O)Nc2ccccc2CCC2CCCCN2C)cc1 (configuration not stated)	115 to 116 °C
CN(C)c1nc(NS(=O)(=O)c2ccc(N)cc2)cc(N2CCC2)n1	239 to 240 °C
CN1N=C2C(=Cc3ccccc3)CN(C(N)=O)CC2C1c1ccccc1 (configuration not stated)	191 to 193 °C
CCCCNC(=O)C1=C(C(=O)Nc2cc(OC3CCCC3)c(Cl)cc2F)CCCC1	142 to 144 °C
CNC(=O)C1(Cl)CC1(Cl)Cl (configuration not stated)	71 to 72 °C
O=C1N[C@H]2[C@H](O)[C@H](O)[C@@H](O)[C@H](CO)[C@@H]2c2cc3c(cc21)OCO3	> 200 °C
COc1cccc(-c2coc3ccc(-c4nnc(C)o4)cc23)c1	127 to 128 °C
NC(=O)Nc1cccc2c1C(=O)c1c-2n[nH]c1-c1ccc(N2CCNCC2)cc1	257 °C
Cc1c(S(=O)(=O)c2ccc(=O)[nH]n2)oc2cccc(Cl)c12	232 to 233 °C
O=C(O)c1cc(F)c(C(F)(F)F)cc1[N+](=O)[O-]	142 to 145 °C
CC(C)(C)c1ccc(-c2nc(NC(=O)c3ccccc3)sc2-c2ccncc2)cc1	292 to 294 °C
COC(=O)CCCCc1cc2nc(Cl)ccc2n1S(=O)(=O)c1ccccc1	73 °C
Cc1cccc(C)c1N1CC(C)N(c2c(C)cccc2C)C1=NC(=O)C(F)(F)F (configuration not stated)	232 to 235 °C
COC(=O)[C@@H](O)[C@@H](OC(C)=O)[C@H](OC(C)=O)[C@H](C=O)OC(C)=O	104 to 110 °C
CC(=O)Oc1c(CN(C)C)c2c(c3c1OC(C)(C)C3)C(c1ccccc1)=NC(C)(C)C2	125 to 126 °C
CN(C)c1ccccc1CC(=O)N1C[C@@H]2C(=O)CCC(c3ccccc3)(c3ccccc3)[C@@H]2C1	150 °C
COC(=O)[C@@H]1C[C@H]1C(=O)O (relative stereo)	46 to 47 °C
O=C(Nc1c(C(O)(C(F)(F)F)C(F)(F)F)ccc2ccccc12)c1ccccc1	190 to 192 °C
C[Si](C)(C)OC1(C#N)CCOc2ccc(Cl)cc21 (configuration not stated)	72 to 73 °C
Cc1sc2c(Br)c3ccccc3c(-c3ccc(OS(=O)(=O)c4scc(C(=O)O)c4O)c(C4CCCC4)c3)c2c1C	> 230 °C
COc1cc(-c2nc3ccc(OCCCl)cc3n2Cc2ccccc2)cc(OC)c1OC	129 °C
Nc1ccc(Oc2cccc(Oc3ccc(N)cc3)n2)cc1	152 to 154 °C
CCOC(=O)c1nc(N)sc1C(=O)CC	134 to 135 °C
CCC(CC)c1ccc(Cl)c2nc3n(c12)CCCCN3c1ccc(SC)cc1C	113 to 115 °C

SMILES	melting point
Cn1c(=O)c2cccnc2n(-c2cccc([N+](=O)[O-])c2)c1=O	234 to 235 °C
COCCOCCN1C(=O)C2(COc3cc4c(cc32)OCCO4)c2c(OC)cc(OC)cc21 (configuration not stated)	158 to 160 °C
COc1cc(NC(=O)OC(C)(C)C)c([N+](=O)[O-])cc1C#Cc1ccccc1	129 °C
CN1CCC(OC2c3ccc(Br)cc3CCn3cc(-c4ccccc4)nc32)CC1 (configuration not stated)	92 °C
Fc1ccc(Oc2ccnc3c(Cl)cccc23)c(Cl)c1	99 to 101 °C
COc1ccc(S(=O)(=O)C(C)(Cc2cccc(OCCN3CCCCC3)c2)C(N)=O)cc1 (configuration not stated)	74 °C
Cc1noc(NS(=O)(=O)c2nccs2)c1Cl	171 to 173 °C
CCCCc1nc2c(N)nc3cccnc3c2n1CCNC(=O)Cc1cccc(O)c1	208 to 210 °C
O=C(O)CCc1c(C=C2C(=O)Nc3ccccc32)[nH]c2c1CCCC2	263 to 265 °C
O=P(Oc1ccc(Oc2ccccc2)cc1)(Oc1ccc(Oc2ccccc2)cc1)c1ccccc1	92 to 93 °C
O=C1N(C2=NCCS2)c2ccccc2C12SCCS2	154 to 157 °C
CC(C)(C)OC(=O)N1CC=C(C#Cc2ccc3c(c2)NC(=O)CC(c2cccc(C#N)c2)=N3)CC1	239 °C
Cn1cnc2c(N)cc(Br)cc21	170 °C
CCNC(=S)c1c(Cl)cccc1[Si](C)(C)C	158 to 159 °C
CC(C)(C)OC(=O)[C@@H]1CCCN2C(=O)CC[C@H](NC(=O)c3ccccc3)C(=O)N12	74 to 76 °C
CC(C)OC(=O)c1cc(-n2c(=O)[nH]c3c(c2=O)CCCC3)ccc1Cl	205 to 207 °C
COCCOc1ccccc1OCC(O)CN1C(C)CCCC1C (configuration not stated)	92 to 94 °C
CS(=O)(=O)c1ccc(C(CC2CCCC2)C(=O)O)cc1 (configuration not stated)	152 to 154 °C
CCCC1CCC(C2CCC3(CC2)C(=O)C2(CCC(C4CCC(CCC)CC4)CC2)C3=O)CC1 (configuration not stated)	290 °C
CC(=O)OCC(ON1C(C)(C)CC(OC(=O)C(C)(C)C)CC1(C)C)c1ccccc1 (configuration not stated)	102 to 103 °C
COc1cccc(CSCCNC(=O)c2c(Cl)cccc2Cl)c1OC	108 to 110 °C
CC(C)=C(C(=O)OCc1ccccc1)N1C(=O)C(Br)(Br)C1Br (configuration not stated)	68 to 70 °C
CN(C)c1cccc2c(S(=O)(=O)Nc3ccc(Cl)nn3)cccc12	153 to 154 °C
O=C(O)[C@H]1CCCN1C(=O)Cc1ccc(CC(=O)N2CCC[C@@H]2C(=O)O)cc1	210 to 214 °C
